Values after ≈ are worked out from the molar mass of the structure shown. Read-outs that look alike come from different tables or passages of the source.
Experiments:
[1] = system: Mtb mc^27902 pMV261; assay type: cell-based, Mycobacterium tuberculosis; conditions: for TMM levels (TLC): at the highest concentrations
[2] = system: E. cloacae NCTC 10005; assay: Non-mycobacterial REMA assay; assay type: cell-based; conditions: Enterobacter cloacae, NCTC10005, read-out: Minimum inhibitory concentration 95%
[3] = system: tuberculosis patients; parameters: method as in PMID 5535617; conditions: monotherapy; after an 8-week regimen; cited from earlier work
[4] = system: Mtb mc^27902 pMV261; assay: EtBr accumulation assay; assay type: cell-based, Mycobacterium tuberculosis; conditions: compound at ½ the MIC; absence or presence of glucose; 60 min
[5] = system: E. coli K12; assay: Non-mycobacterial REMA assay; assay type: cell-based; conditions: Escherichia coli, read-out: Minimum inhibitory concentration 95%
Experimental: (§1) Bacterial minimum inhibition concentrations (MIC) were determined using the Resazurin Microtiter Assay (REMA) method according to Palomino et al.[28] Stock solutions of the tested compounds were prepared in sterile dimethyl sulfoxide (DMSO), then diluted in 7H9OPALPen^1Cyc^10(Kan^25) to obtain a final drug concentration range of 32–0.032 μg/mL. A suspension of the test Mycobacterium was cultured in 7H9OPALPen^1Cyc^10(Kan^25) containing 0.05% v/v Tween^80 for one week at 37 °C, 5% CO2. The bacterial suspension was adjusted to 0.5 McFarland and diluted in 7H9OPALPen^1Cyc^10(Kan^25) 1:25. 100 μL of the inoculum was added to each well of a 96-well microplate together with 100 μL of the compound titration. The plate was incubated at 37 °C, 5% CO2. After 5 days, 10.5 μL 0.1% (w/v) sterile resazurin (solubilised in sterile PBS containing 0.02% v/v Tween^80) was added. Reduced resazurin was detected using fluorescence (Ex/Em 530/590 nm) in a FLUOstar Optima, BMG Labtech. All titre measurements were plotted in SigmaPlot™ and 4-parameter logistic (4PL) model regressions conducted. The relative MIC95 of each curve was calculated and averaged (Table 1). Testing was performed in duplicate with two independent biological repeats. […] Though, for these cultures, dilutions were performed at 1:125 prior to inoculation of the plate and incubation for 4 h (Supplementary Table 3). Known antitubercular agents used in this study were rifampicin (RIF), isoniazid (INH), ISO, EMB, ethionamide (ETH), linezolid (LZD), delamanid (DEL) and moxifloxacin (MOX).

[6] = system: S. enterica NCTC 6754; assay: Non-mycobacterial REMA assay; assay type: cell-based; conditions: Salmonella enterica, NCTC6754, read-out: Minimum inhibitory concentration 95%
Experimental: as §1

[7] = system: HepG2 human liver cancer cell line; assay: MTS cytotoxicity assay, liver cells; assay type: cell-based; conditions: 96 h, read-out: MTS percentage survival @ 100 µM
[8] = system: S. agalactiae NCTC 8181; assay: Non-mycobacterial REMA assay; assay type: cell-based; conditions: Streptococcus agalactiae, NCTC8181, read-out: Minimum inhibitory concentration 95%
[9] = system: E. faecium NCTC 7171; assay: Non-mycobacterial REMA assay; assay type: cell-based; conditions: Enterococcus faecium, NCTC7171, read-out: Minimum inhibitory concentration 95%
[10] = system: RAW264.7 murine macrophage cells; assay: cells; assay type: cell-based; conditions: for viability at 100 µM / IC50: Mus musculus; for viability at 100 µM: RAW264.7, 96 h, RAW264.7 macrophage, 96 h, read-out: MTS percentage survival @ 100 µM; for IC50: RAW264.7 macrophages, 0 to 100 µM, read-out: IC50 (cell viability, MTS assay)
[11] = system: A. baumannii NCTC 12156; assay: Non-mycobacterial REMA assay; assay type: cell-based; conditions: Acinetobacter baumannii, NCTC12156, read-out: Minimum inhibitory concentration 95%
[12] = system: P. aeruginosa DSM 19880; assay: Non-mycobacterial REMA assay; assay type: cell-based; conditions: Pseudomonas aeruginosa, DSM19880, read-out: Minimum inhibitory concentration 95%
[13] = system: S. aureus NCTC 2981; assay: Non-mycobacterial REMA assay; assay type: cell-based; conditions: Staphylococcus aureus, NCTC2981, read-out: Minimum inhibitory concentration 95%
[14] = system: E. faecalis NCTC 775; assay: Non-mycobacterial REMA assay; assay type: cell-based; conditions: Enterococcus faecalis, NCTC775, read-out: Minimum inhibitory concentration 95%
[15] = system: S. pyogenes NCTC 8198; assay: Non-mycobacterial REMA assay; assay type: cell-based; conditions: Streptococcus pyogenes, NCTC8198, read-out: Minimum inhibitory concentration 95%
[16] = system: K. pneumoniae NCTC 9633; assay: Non-mycobacterial REMA assay; assay type: cell-based; conditions: Klebsiella pneumoniae, NCTC9633, read-out: Minimum inhibitory concentration 95%
[17] = system: Mtb mc^27902 pMV261; assay: microbe, parasite or virus in culture; assay type: cell-based; conditions: Mycobacterium tuberculosis
[18] = system: B. cereus NCTC 7464; assay: Non-mycobacterial REMA assay; assay type: cell-based; conditions: Bacillus cereus, NCTC7464, read-out: Minimum inhibitory concentration 95%
[19] = system: AC10 hybrid adult ventricular cardiomyocytes; assay: MTS cytotoxicity assay, cardiomyocytes; assay type: cell-based; conditions: Homo sapiens, AC10 cardiac, 96 h, read-out: MTS percentage survival @ 100 µM
[20] = system: M. bovis BCG containing the pVVdesA3 overexpression plasmid; parameters: method as in PMID 14559907; conditions: M. bovis BCG with pVVdesA3 overexpression plasmid; microplate alamar blue assay; cited from earlier work
[21] = system: M. bovis BCG; conditions: microplate alamar blue assay; cited from earlier work
[22] = system: Mtb mc^27902 pMV261; assay type: cell-based, Mycobacterium tuberculosis; conditions: in the presence of glucose; 37 °C, 30 min
[23] = system: Mtb mc^27902 pMV261; assay: Synergy (two-drug checkerboard style) assay; assay type: cell-based, Mycobacterium tuberculosis; conditions: in combination with RIF
[24] = mc^27902 pMV261, REMA, read-out: Mtb MIC95

| Compound | TDM and glucose monomycolate levels (TLC) [1] | effect on mycolic acid biosynthesis (FAMEs/MAMEs, TLC/autoradiography) [1] | TMM levels (TLC) [1] | MIC [2] [µg/mL] | MIC [5] [µg/mL] | MIC [6] [µg/mL] | viability at 100 µM [7] [%] | MIC [8] [µg/mL] | MIC [9] [µg/mL] | viability at 100 µM [10] [%] | IC50 [10] [µM] | MIC [11] [µg/mL] | MIC [12] [µg/mL] | MIC [13] [µg/mL] | MIC [14] [µg/mL] | MIC [15] [µg/mL] | MIC [16] [µg/mL] | MIC [17, 24] [µg/mL] | MIC [18] [µg/mL] | viability at 100 µM [19] [%] | other results |
| --- | --- | --- | --- | --- | --- | --- | --- | --- | --- | --- | --- | --- | --- | --- | --- | --- | --- | --- | --- | --- | --- |
| CC(C)CCOc1ccc(NC(=S)Nc2ccc(OCCC(C)C)cc2)cc1 [ISO, 4,4′-diisoamyloxydiphenylthiourea] | decrease in TDM and glucose monomycolate | mycolate depletion was observed in both the cell wall-bound and whole cell analysis | not observed | > 32 | > 32 | > 32 | 95.4 ± 4.3 | > 32 | > 32 | 34.5 | 18.8 | > 32 | > 32 | > 32 | > 32 | > 32 | > 32 | 0.2 | > 32 | 38.9 ± 13.9 | patients testing sputum negative [3]: 25%; accumulation of EtBr [4]: increased accumulation of EtBr; selectivity index (SI) ([10]; from RAW264.7 IC50 and Mtb MIC95): 38; MIC ([17]; values used for the SI, in brackets, […], read-out: MIC95): 0.2 µg/mL; MIC ([17]; values used for the SI, […], read-out: MIC95): 0.49 µM; MIC [20]: 6.0 µg/mL (≈ 15 µM); MIC [21]: 3.0 µg/mL (≈ 7.49 µM) |
| CC(C)CCOc1ccc(NC(=S)NC2C3CC4CC(C3)CC2C4)cc1 (stereo not shown) [Ad-2-ISO, 1-((1r,3r,5r,7r)-adamantan-2-yl)-3–(4-(isopentyloxy)phenyl)thiourea] | decrease in TDM and glucose monomycolate | more significant reduction in radiolabel incorporation | slight increase in the TMM levels | > 32 | > 32 | > 32 | 13.4 ± 5.1 | > 32 | > 32 | 22.5 ± 0.9 | 95.3 | > 32 | > 32 | > 32 | > 32 | > 32 | > 32 | 2.88 | > 32 | 51.1 ± 17.7 | efflux of EtBr [22]: significantly increased the overall efflux of EtBr; FICI [23]: 0.52 |

Reference: paper PMC12096669, “Structural isomerisation affects the antitubercular activity of adamantyl-isoxyl adducts” (Journal of Enzyme Inhibition and Medicinal Chemistry, 2025)
